Assay results from patent US10772886B2, “CXCR-2 inhibitors for treating crystal arthropathy disorders” (ARDEA BIOSCIENCES, INC., priority 2016, dated 2020).

How the values were obtained:
[1] = system: rat air pouch model of crystal-induced arthropathy (MSU); assay: Rat air pouch model, Example 9 (Compound 4 in combination with colchicine); assay type: in vivo
Experimental: Sodium hydroxide (40 g, Fisher Scientific) was dissolved in de-ionized water (100 mL, dH2O) to provide a 10N solution. […] The resulting clear solution was cooled to 4-8° C., resulting in the formation of crystals, which were isolated by filtration, washed three times with de-ionized wa[…]) and dried at 37° C. The dried mono sodium urate crystals were sifted into an air-tight container for storage. […] Methylcellulose (0.4 g, Sigma) was dissolved in de-ionized water (100 mL) to provide a 0.4% solution used as vehicle. […] Test compounds were suspended in vehicle to provide the desired concentrations, and diluted accordingly. […] The animals were in apparent good health with no clinical signs of disease or distress. The rats were placed in quarantine with daily inspections, ear notched for identification purposes and shaved at the nape of the neck. The rats were anesthetized (isoflurane), and the nape of the neck was cleansed with 70% isopropanol (Butler Animal Health Supply) followed by povidone-iodine solution (Ricca Chemical Co.). Sterile air (30 mL, 0.2 μm, Millipore) was injected subcutaneously using a 23 G×11⁄2 inch needle fixed to a 30 mL syringe. The rats were returned to routine housing with no adverse reactions observed. The rats were anesthetized (isoflurane), and the nape of the neck was cleansed with 70% isopropanol (Butler Animal Health Supply) followed by povidone-iodine solution (Ricca Chemical Co.). Sterile air (15 mL, 0.11 μm, Millipore) was injected subcutaneously using a 23 G×11⁄2 inch needle fixed to a 20 mL syringe. The rats were returned to routine housing with no adverse reactions observed. The rats were weighed and sorted into treatment groups based on average body weight. As appropriate, the rats were dosed orally with test compound or vehicle (saline alone). […] Thirty minutes after SC injection or two hours after PO dosing, MSU (15 mL) was injected into the air pouch using an 18 G×2 inch needle fitted to a 20 mL syringe. Control group was injected with 15 mL sterile saline (vehicle). The injection sites were closed (collodion, Macron) and the rats returned to their cages with no adverse effects observed. Four hours after MSU/saline injection, the rats were anesthetized and heparinized saline (5 mL, 10 U/mL) was injected into the air pouch. […] An aliquot of the exudate was transferred to green Eppendorf tubes for total white blood cell (WBC) measurement. After allowing the MSU crystals to settle out for ten minutes, an aliquot of the exudate was transferred to heparinized microtainer tubes (Becton Dickinson) for differential white blood cell counts. The remainder of the exudate was centrifuged and an aliquot of the supernatants was dispensed to labeled clear Eppendorf tubes and stored at -80° C. The rats were exsanguinated into pre-chilled serum separator tubes, processed to serum, and 0.5 mL aliquot was stored at -80° C. in labeled Eppendorf tubes. […] [table]

[2] = system: rat air pouch model of crystal-induced arthropathy (MSU); assay: Rat air pouch model, Example 8 (Compound 3 in combination with colchicine); assay type: in vivo
Experimental: Sodium hydroxide (40 g, Fisher Scientific) was dissolved in de-ionized water (100 mL, dH2O) to provide a 10N solution. Uric acid (16 g, Sigma) was added to de-ionized water (3400 mL) containing sodium hydroxide solution (11.8 mL, 10N) and heated to 60° C. with constant stirring. […] The resulting clear solution was cooled to 4-8° C., resulting in the formation of crystals, which were isolated by filtration, washed three times with de-ionized wa[…]) and dried at 37° C. The dried mono sodium urate crystals were sifted into an air-tight container for storage. […] Methylcellulose (0.4 g, Sigma) was dissolved in de-ionized water (100 mL) to provide a 0.4% solution used as vehicle. […] Test compounds were suspended in vehicle to provide the desired concentrations, and diluted accordingly. […] Male Sprague-Dawley rats (Charles River Laboratories, 160-180 g) were received, individually examined and housed in cages of five rats each. The animals were in apparent good health with no clinical signs of disease or distress. The rats were placed in quarantine with daily inspections, ear notched for identification purposes and shaved at the nape of the neck. The rats were anesthetized (isoflurane), and the nape of the neck was cleansed with 70% isopropanol (Butler Animal Health Supply) followed by povidone-iodine solution (Ricca Chemical Co.). Sterile air (30 mL, 0.2 μm, Millipore) was injected subcutaneously using a 23 G×11⁄2 inch needle fixed to a 30 mL syringe. The rats were returned to routine housing with no adverse reactions observed. The rats were anesthetized (isoflurane), and the nape of the neck was cleansed with 70% isopropanol (Butler Animal Health Supply) followed by povidone-iodine solution (Ricca Chemical Co.). Sterile air (15 mL, 0.11 μm, Millipore) was injected subcutaneously using a 23 G×11⁄2 inch needle fixed to a 20 mL syringe. The rats were returned to routine housing with no adverse reactions observed. The rats were weighed and sorted into treatment groups based on average body weight. As appropriate, the rats were dosed orally with test compound or vehicle (saline alone). […] Thirty minutes after SC injection or two hours after PO dosing, MSU (15 mL) was injected into the air pouch using an 18 G×2 inch needle fitted to a 20 mL syringe. Control group was injected with 15 mL sterile saline (vehicle). The injection sites were closed (collodion, Macron) and the rats returned to their cages with no adverse effects observed. Four hours after MSU/saline injection, the rats were anesthetized and heparinized saline (5 mL, 10 U/mL) was injected into the air pouch. […] An aliquot of the exudate was transferred to green Eppendorf tubes for total white blood cell (WBC) measurement. After allowing the MSU crystals to settle out for ten minutes, an aliquot of the exudate was transferred to heparinized microtainer tubes (Becton Dickinson) for differential white blood cell counts. The remainder of the exudate was centrifuged and an aliquot of the supernatants was dispensed to labeled clear Eppendorf tubes and stored at -80° C. The rats were exsanguinated into pre-chilled serum separator tubes, processed to serum, and 0.5 mL aliquot was stored at -80° C. in labeled Eppendorf tubes. […] [table]

[3] = 10.0 umol/kg PO + Colchicine 0.3 mpk SC, Group 10
[4] = 10 umol/kg PO + Colchicine 0.3 mpk SC, Group 10

COc1cc2c(c(OC)c1OC)-c1ccc(OC)c(=O)cc1[C@@H](NC(C)=O)CC2 [Colchicine, COLCHICINE, reference compound]
Avg Exudate Vol ([1]; 0.3 mpk SC, Group 3): 12.4 mL | Avg Tot WBC ([1]; 0.3 mpk SC, Group 3): 120 ×10^6 | Neutrophils ([1]; 0.3 mpk SC, Group 3): 101.9 ×10^6 | Avg Exudate Vol ([1]; 0.5 mpk SC, Group 4): 8.8 mL | Avg Tot WBC ([1]; 0.5 mpk SC, Group 4): 58 ×10^6 | Neutrophils ([1]; 0.5 mpk SC, Group 4): 42.7 ×10^6 | Avg Exudate Vol ([1]; 1.0 mpk SC, Group 5): 5.6 mL | Avg Tot WBC ([1]; 1.0 mpk SC, Group 5): 16 ×10^6 | Neutrophils ([1]; 1.0 mpk SC, Group 5): 9.8 ×10^6 | Avg Exudate Vol ([2]; 0.3 mpk SC, Group 3): 11.88 mL | Avg Total WBC ([2]; 0.3 mpk SC, Group 3): 170 ×10^6 | Neutrophils ([2]; 0.3 mpk SC, Group 3): 121.8 ×10^6 | Avg Exudate Vol ([2]; 0.5 mpk SC, Group 4): 7.62 mL | Avg Total WBC ([2]; 0.5 mpk SC, Group 4): 96.3 ×10^6 | Neutrophils ([2]; 0.5 mpk SC, Group 4): 64.6 ×10^6 | Avg Exudate Vol ([2]; 1.0 mpk SC, Group 5): 6.8 mL | Avg Total WBC ([2]; 1.0 mpk SC, Group 5): 41.5 ×10^6 | Neutrophils ([2]; 1.0 mpk SC, Group 5): 7.6 ×10^6

C[C@@H](Oc1cc(NS(=O)(=O)N2CCC2)nc(SCc2cccc(F)c2F)n1)[C@@H](O)CO [Compound 3, N-(2-((2,3-difluorobenzyl)thio)-6-(((2R,3S)-3,4-dihydroxybutan-2-yl)oxy)pyrimidin-4-yl)azetidine-1-sulfonamide]
Avg Exudate Vol [2, 3]: 9.46 mL | Avg Total WBC [2, 3]: 69.1 ×10^6 | Neutrophils [2, 3]: 53.1 ×10^6 | Avg Exudate Vol ([2]; 10.0 umol/kg PO, Group 6): 10.93 mL | Avg Total WBC ([2]; 10.0 umol/kg PO, Group 6): 118 ×10^6 | Neutrophils ([2]; 10.0 umol/kg PO, Group 6): 83.3 ×10^6 | Avg Exudate Vol ([2]; 30.0 umol/kg PO, Group 7): 8.42 mL | Avg Total WBC ([2]; 30.0 umol/kg PO, Group 7): 70.5 ×10^6 | Neutrophils ([2]; 30.0 umol/kg PO, Group 7): 40.3 ×10^6 | Avg Exudate Vol ([2]; 100 umol/kg PO, Group 8): 6.56 mL | Avg Total WBC ([2]; 100 umol/kg PO, Group 8): 56.1 ×10^6 | Neutrophils ([2]; 100 umol/kg PO, Group 8): 25.2 ×10^6 | Avg Exudate Vol ([2]; 300 umol/kg PO, Group 9): 5.7 mL | Avg Total WBC ([2]; 300 umol/kg PO, Group 9): 24.7 ×10^6 | Neutrophils ([2]; 300 umol/kg PO, Group 9): 5.3 ×10^6

CC1CN(S(=O)(=O)Nc2cc(O[C@H](C)[C@@H](O)CO)nc(SCc3ccc(F)cc3)n2)C1 [Compound 4, N-(6-(((2R,3S)-3,4-dihydroxybutan-2-yl)oxy)-2-((4-fluorobenzyl)thio)pyrimidin-4-yl)-3-methylazetidine-1-sulfonamide]
Avg Exudate Vol [1, 4]: 7.8 mL | Avg Tot WBC [1, 4]: 20 ×10^6 | Neutrophils [1, 4]: 6.4 ×10^6 | Avg Exudate Vol ([1]; 10.0 umol/kg PO, Group 6): 12.5 mL | Avg Tot WBC ([1]; 10.0 umol/kg PO, Group 6): 160 ×10^6 | Neutrophils ([1]; 10.0 umol/kg PO, Group 6): 102.1 ×10^6 | Avg Exudate Vol ([1]; 30.0 umol/kg PO, Group 7): 6.7 mL | Avg Tot WBC ([1]; 30.0 umol/kg PO, Group 7): 28.7 ×10^6 | Neutrophils ([1]; 30.0 umol/kg PO, Group 7): 14 ×10^6 | Avg Exudate Vol ([1]; 100 umol/kg PO, Group 8): 6 mL | Avg Tot WBC ([1]; 100 umol/kg PO, Group 8): 12 ×10^6 | Neutrophils ([1]; 100 umol/kg PO, Group 8): 3.8 ×10^6 | Avg Exudate Vol ([1]; 300 umol/kg PO, Group 9): 5.2 mL | Avg Tot WBC ([1]; 300 umol/kg PO, Group 9): 8.1 ×10^6 | Neutrophils ([1]; 300 umol/kg PO, Group 9): 4.3 ×10^6
